Converted amounts (≈) assume the structure as drawn. Read-outs that look alike come from different tables or passages of the source.
System: Streptococcus mutans ATCC 25175
Experiment: MIC test for Streptococcus mutans (NCCLS)
Assay type: cell-based
Description: Generally there are minimum inhibitory concentration (hereinafter, referred to MIC) test and time-kill assay test as test methods that become the standard for judging utility of antibiotics, when a new antibiotics is developed.
MIC TEST is a test method deciding minimum inhibitory concentration where bacteria cannot grow well, namely minimal usage of antibiotics for obtaining purposed antibacterial efficacy, and Time-Kill assay test is a test method deciding usage of antibiotics that can maintain purposed efficacy for certain time range. Each test was performed, in order to test whether mangosteem extracts have proliferation inhibiting efficacy against Streptocccus Mutans (Streptocccus Mutans ATCC […]) to a certain degree.
MIC test for Streptococcus mutans (Streptococcus mutans ATCC 25175) was progressed according to the American clinical test standard method, NCCLS (National Committee for Clinical Laboratory Standards). To do comparative test of antibacterial ability of mangosteen extracts against Streptococcus mutans, after preparing each analysis sample as shown in the following table 5, that is the concentration of each analysis sample was 0, 1, 2, 3, 4, 5, 6, 7, 8, 9 and 10 ul, and the concentration of used Streptococcus mutans bacteria finally became 1×10^5 at the ratio of 50% by weight, and the concentration of DMSO (dimethyl sulfoxide) used as an analysis sample solvent finally became 1% by weight, and BHI medium (Brain heart infusion: Peptic Digest of Animal tissue, Sodium Chloride, Dextrose, Pancreatic Digest of Gelation, Disodium Phosphate, Final PH7.4+-0.2; Difco Company) was added for the remaining 40% by weight, they were used for the test. […]
After adding the samples in a microtube (duplicate) and culturing at 37° C. for 24 hrs, growth inhibit ion degree was observed by measuring absorbance at 500 nm.

SMILES | MIC (S. mutans ATCC 25175, 37° C. 24 hrs, absorbance 500 nm) | MIC (Streptococcus mutans, ATCC25175, S. mutans ATCC 25175, 37° C. 24 hrs, absorbance 500 nm, read-out: MIC) [µg/mL] | MIC (Streptococcus mutans, ATCC25175, 24 h) [µg/mL]
COc1c(O)cc2oc3cc(O)c(CC=C(C)C)c(O)c3c(=O)c2c1CC=C(C)C [Alpha-mangosteen, alpha-mangosteen] | 1.0(ug/ml) | 1 (≈ 2.44 µM) | –
CC(C)=CCc1c(O)cc2oc3cc(O)c(O)c(CC=C(C)C)c3c(=O)c2c1O [Gamma-mangosteen, gamma-mangosteen] | – | – | 4 (≈ 10.1 µM)
